Among the data in patent US8815854B2, “Substituted imidazopyridinyl compounds” (ArQule, Inc., priority 2011, dated 2014) are IC50 values, retold here.

Structures are written as SMILES.

Chain of Full-length inactive AKT1 (P31749 whole entry): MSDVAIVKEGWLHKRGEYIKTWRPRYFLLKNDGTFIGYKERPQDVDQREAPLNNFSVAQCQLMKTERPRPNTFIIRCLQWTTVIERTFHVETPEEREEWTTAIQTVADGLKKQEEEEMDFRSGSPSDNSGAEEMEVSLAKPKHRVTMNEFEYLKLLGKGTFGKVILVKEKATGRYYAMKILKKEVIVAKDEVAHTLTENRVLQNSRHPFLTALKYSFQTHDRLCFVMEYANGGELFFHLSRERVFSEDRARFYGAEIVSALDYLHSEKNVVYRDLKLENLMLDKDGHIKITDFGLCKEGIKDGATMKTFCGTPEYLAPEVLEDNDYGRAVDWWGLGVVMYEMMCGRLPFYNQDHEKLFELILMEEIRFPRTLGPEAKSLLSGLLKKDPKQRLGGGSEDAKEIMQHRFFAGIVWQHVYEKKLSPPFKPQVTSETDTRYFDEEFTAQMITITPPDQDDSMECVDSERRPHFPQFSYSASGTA

The test addresses Full-length inactive AKT1 (Homo sapiens (Human), UniProt P31749). The experiment in a line: Inactive Akt Alpha Screen Assay (AKT1, crosstide substrate). Particulars: full-length inactive AKT1 activated by PDK1 and MAPKAPK2, lipid vesicles, 50 μM ATP; biotinylated crosstide substrate; read-out: Akt1 biochemical assay IC50 AlphaScreen crosstide. The method, then:
AKT1 activity was assayed using the GSK3-derived biotinylated peptide substrate, crosstide (biotin-GRPRTSSFAEG), and AlphaScreen™ (Amplified Luminescent Proximity Homogeneous Assay) technology. AKT1 activation was achieved by the addition of the activating kinases PDK1 and MAPKAPK2, lipid vesicles, and ATP. The extent of peptide phosphorylation was determined using a phospho-AKT substrate antibody and acceptor beads conjugated to Protein A and donor beads conjugated to streptavidin that bind to the biotin on the peptide. Excitation of the donor beads converted ambient oxygen to excited singlet oxygen which, when in close proximity to acceptor beads, reacted with acceptor beads resulting in signal amplification.
Test inhibitors and controls ((S)-1-(5-(3-methyl-1H-indazol-5-yl)pyridin-3-yl)oxy)-3-phenylpropan-2-amine, 1-(1-(4-(7-phenyl-1H-imidazo[4,5-g]quinoxalin-6-yl)benzyl)piperidin-4-yl)-1H-benzo[d]imidazol-2(3H)-one, and 8-(4-(1-aminocyclobutyl)phenyl)-9-phenyl-[1,2,4]triazolo[3,4-f][1,6]naphthyridin-3(2H)-one) were prepared in 10% DMSO at 10-fold the desired final concentration, and added to each well of a reaction plate (Corning 96-well half-area solid white nonbinding surface plate) in a volume of 2.5 μL. […] After a 20 minute pre-incubation at room temperature, the kinase reaction was initiated by the addition of 5 μL of an activation mixture diluted in assay buffer containing biotinylated crosstide, PDK1, MAPKAPK2, DOPS/DOPC, PtdIns(3,4,5)P3, and ATP for final concentrations of 60 nM biotinylated crosstide, 0.1 nM PDK1, 0.7 nM MK2, 5.5 μM DOPS, 5.5 μM DOPC, 0.5 μM PtdIns(3,4,5)P3, and 50 μM ATP. The plates were incubated for 30 minutes at room temperature, and then stopped in the dark by the addition of 10 μL stop/detection mixture prepared in assay buffer containing EDTA, AlphaScreen™ Streptavidin Donor and Protein A Acceptor beads, and phospho-AKT substrate antibody for final concentrations of 10 mM EDTA, 500 ng/well of both AlphaScreen™ Streptavidin Donor beads and Protein A Acceptor beads, and phospho-AKT substrate antibody at a final dilution of 1:350. Assay plates were incubated for 90 minutes at room temperature in the dark, and the plates were read on a Perkin Elmer Envision Multilabel plate reader (excitation wavelength: […], emission wavelength: 570 nm).
Envision Instrument Settings: • Instrument: Perkin Elmer Envision • Plate: 96 well • Program Name: • Excitation: Ex Top • Minor: General Dual—Slot 2 • Excitation Filter: CFP430 Ex. Slot 2 • Emission Filter Emission 579—Em slot 2 • 2nd Emission Filter: None • Measurement Height (mm): 3.8 • Excitation light (%): 1 • Detector gain: 1 • 2nd detector gain: 0 • # Flashes: 10 • # Flashed/AD: 1 • Reference Signal: 383722 • AD gain: 4 • Reference Excitation (%): 100
In general terms: Alpha assays give light when donor and acceptor beads are brought close together.
Regarding `NC1(c2ccc(-n3c(-c4ccccc4)nc4ccc(-c5ccccc5)nc43)cc2)CCC1` [Cmpd 5, 1-[4-(2,5-diphenyl-3H-imidazo[4,5-b]pyridin-3-yl)phenyl] cyclobutanamine], the IC50 (as a rule, the midpoint of a concentration-inhibition curve) is 12.6 nM. The same measure for `NC1(c2ccc(-n3c(-c4cccnc4F)nc4ccc(-c5ccccc5)nc43)cc2)CCC1` [Cmpd 7, 1-{4-[2-(2-fluoropyridin-3-yl)-5-phenyl-3H-imidazo[4,5-b]pyridin-3-yl]phenyl}cyclobutanamine]: 11.5 nM; for `NC1(c2ccc(-n3c(-c4ccccc4)nc4ccc(-c5cccc(N6CCOCC6)c5)nc43)cc2)CCC1` [Cmpd 9, 1-{4-[5-(3-morpholin-4-ylphenyl)-2-phenyl-3H-imidazo[4,5-b]pyridin-3-yl]phenyl}cyclobutanamine]: 3.47 nM; for `NC1(c2ccc(-n3c(-c4ccccc4F)nc4ccc(-c5cccc(N6CCOCC6)c5)nc43)cc2)CCC1` [Cmpd 11, 1-{4-[2-(2-fluorophenyl)-5-(3-morpholin-4-ylphenyl)-3H-imidazo[4,5-b]pyridin-3-yl]phenyl}cyclobutanamine]: 1.99 nM. The same measure for `NC1(c2ccc(-n3c(-c4cccs4)nc4ccc(-c5cccc(N6CCOCC6)c5)nc43)cc2)CCC1` [Cmpd 12, 1-{4-[5-(3-morpholin-4-ylphenyl)-2-(2-thienyl)-3H-imidazo[4,5-b]pyridin-3-yl]phenyl} cyclobutanamine]: 7.17 nM; for `NC1(c2ccc(-n3c(-c4ccsc4)nc4ccc(-c5cccc(N6CCOCC6)c5)nc43)cc2)CCC1` [Cmpd 13, 1-{4-[5-(3-morpholin-4-ylphenyl)-2-(3-thienyl)-3H-imidazo[4,5-b]pyridin-3-yl]phenyl} cyclobutanamine]: 5.78 nM. The same measure for `NC1(c2ccc(-n3c(-c4ccccn4)nc4ccc(-c5cccc(N6CCOCC6)c5)nc43)cc2)CCC1` [Cmpd 14, 1-{4-[5-(3-morpholin-4-ylphenyl)-2-pyridin-2-yl-3H-imidazo[4,5-b]pyridin-3-yl]phenyl} cyclobutanamine]: 1.69 nM; for `NC1(c2ccc(-n3c(-c4cccnc4)nc4ccc(-c5cccc(N6CCOCC6)c5)nc43)cc2)CCC1` [Cmpd 15, 1-{4-[5-(3-morpholin-4-ylphenyl)-2-pyridin-3-yl-3H-imidazo[4,5-b]pyridin-3-yl]phenyl} cyclobutanamine]: 4.3 nM. Take `NC1(c2ccc(-n3c(-c4ccncc4)nc4ccc(-c5cccc(N6CCOCC6)c5)nc43)cc2)CCC1` [Cmpd 16, 1-{4-[5-(3-morpholin-4-ylphenyl)-2-pyridin-4-yl-3H-imidazo[4,5-b]pyridin-3-yl]phenyl} cyclobutanamine]: the IC50 worked out at 7.75 nM. `NC1(c2ccc(-n3c(-c4nccs4)nc4ccc(-c5cccc(N6CCOCC6)c5)nc43)cc2)CCC1` [Cmpd 17, 1-{4-[5-(3-morpholin-4-ylphenyl)-2-(1,3-thiazol-2-yl)-3H-imidazo[4,5-b]pyridin-3-yl]phenyl} cyclobutanamine]: the IC50 is 4.74 nM. Take `NC1(c2ccc(-n3c(-c4cc[nH]n4)nc4ccc(-c5cccc(N6CCOCC6)c5)nc43)cc2)CCC1` [Cmpd 18, 1-{4-[5-(3-morpholin-4-ylphenyl)-2-(1H-pyrazol-3-yl)-3H-imidazo[4,5-b]pyridin-3-yl]phenyl} cyclobutanamine]: the 50% inhibitory concentration (IC50) came out at 7.27 nM. As to `NC1(c2ccc(-n3c(-c4cc[nH]c4)nc4ccc(-c5cccc(N6CCOCC6)c5)nc43)cc2)CCC1` [Cmpd 19, 1-{4-[5-(3-morpholin-4-ylphenyl)-2-(1H-pyrrol-3-yl)-3H-imidazo[4,5-b]pyridin-3-yl]phenyl} cyclobutanamine], the half-inhibitory concentration (IC50) was 5.67 nM.

For `COC(=O)c1ccccc1-c1nc2ccc(-c3cccc(N4CCOCC4)c3)nc2n1-c1ccc(C2(N)CCC2)cc1` [Cmpd 20, methyl 2-{3-[4-(1-aminocyclobutyl)phenyl]-5-(3-morpholin-4-ylphenyl)-3H-imidazo[4,5-b]pyridin-2-yl} benzoate], the half-inhibitory concentration (IC50) turned out to be 5260 nM. Consider `NC1(c2ccc(-n3c(C4CCCCC4)nc4ccc(-c5cccc(N6CCOCC6)c5)nc43)cc2)CCC1` [Cmpd 24, 1-{4-[2-cyclohexyl-5-(3-morpholin-4-ylphenyl)-3H-imidazo[4,5-b]pyridin-3-yl]phenyl} cyclobutanamine], for which the IC50 amounted to 1160 nM. For the compound `NC1(c2ccc(-n3c(-c4ccc(O)cc4)nc4ccc(-c5cccc(N6CCOCC6)c5)nc43)cc2)CCC1` [Cmpd 26, 4-{3-[4-(1-aminocyclobutyl)phenyl]-5-(3-morpholin-4-ylphenyl)-3H-imidazo[4,5-b]pyridin-2-yl}phenol], the IC50 was determined as 4.42 nM. In the case of `NC1(c2ccc(-n3c(-c4cccc(F)c4)nc4ccc(-c5cccc(N6CCOCC6)c5)nc43)cc2)CCC1` [Cmpd 30, 1-{4-[2-(3-fluorophenyl)-5-(3-morpholin-4-ylphenyl)-3H-imidazo[4,5-b]pyridin-3-yl]phenyl}cyclobutanamine], the IC50 was 4.78 nM.

In the case of `NC1(c2ccc(-n3c(-c4ccc(F)cc4)nc4ccc(-c5cccc(N6CCOCC6)c5)nc43)cc2)CCC1` [Cmpd 31, 1-{4-[2-(4-fluorophenyl)-5-(3-morpholin-4-ylphenyl)-3H-imidazo[4,5-b]pyridin-3-yl]phenyl}cyclobutanamine], the IC50 worked out at 35.5 nM.

As for `NC1(c2ccc(-n3c(-c4ccc(Cl)cc4)nc4ccc(-c5cccc(N6CCOCC6)c5)nc43)cc2)CCC1` [Cmpd 34, 1-{4-[2-(4-chlorophenyl)-5-(3-morpholin-4-ylphenyl)-3H-imidazo[4,5-b]pyridin-3-yl]phenyl}cyclobutanamine], the IC50 worked out at 5.9 nM. Turning to `NC(=O)c1cccc(-c2ccc3nc(-c4ccccc4)n(-c4ccc(C5(N)CCC5)cc4)c3n2)c1` [Cmpd 35, 3-{3-[4-(1-aminocyclobutyl)phenyl]-2-phenyl-3H-imidazo[4,5-b]pyridin-5-yl}benzamide], the half-inhibitory concentration (IC50) was 6.27 nM. As to `CN(C)C(=O)c1cccc(-c2ccc3nc(-c4ccccc4)n(-c4ccc(C5(N)CCC5)cc4)c3n2)c1` [Cmpd 36, 3-{3-[4-(1-aminocyclobutyl)phenyl]-2-phenyl-3H-imidazo[4,5-b]pyridin-5-yl}-N,N-dimethylbenzamide], the concentration for half-maximal inhibition (IC50) came to 5.71 nM. With `CNC(=O)c1cccc(-c2ccc3nc(-c4ccccc4)n(-c4ccc(C5(N)CCC5)cc4)c3n2)c1` [Cmpd 37], the IC50 was found to be 4.96 nM. With `NC1(c2ccc(-n3c(-c4cnccn4)nc4ccc(-c5cccc(N6CCOCC6)c5)nc43)cc2)CCC1` [Cmpd 42, 1-{4-[5-(3-morpholin-4-ylphenyl)-2-pyrazin-2-yl-3H-imidazo[4,5-b]pyridin-3-yl]phenyl} cyclobutanamine], the IC50 is 4.27 nM. Under `NC1(c2ccc(-n3c(C4CC4)nc4ccc(-c5cccc(N6CCOCC6)c5)nc43)cc2)CCC1` [Cmpd 44, 1-{4-[2-cyclopropyl-5-(3-morpholin-4-ylphenyl)-3H-imidazo[4,5-b]pyridin-3-yl]phenyl}cyclobutanamine] stands 871 nM; under `NC1(c2ccc(-n3c(-c4ccccc4)nc4ccc(Nc5ccccc5)nc43)cc2)CCC1` [Cmpd 47, 3-[4-(1-aminocyclobutyl)phenyl]-N,2-diphenyl-3H-imidazo[4,5-b]pyridin-5-amine], 4.13 nM.
